Consider three molecules from patent US11214590B2, “Photoresponsive nucleotide analog capable of photocrosslinking in visible light region” (JAPAN ADVANCED INSTITUTE OF SCIENCE AND TECHNOLOGY, priority 2017, dated 2022).

One assay deals with nucleic acids. As to conditions: irradiation with light having 350 nm; cited from earlier work.
Another assay relates to cODN. In words: Photocrosslinking test with SPCX, UPLC analysis. The class given is biochemical. The method, then: The experiment was carried out as described below using the following ODN (^SPCX) and cODN:
10 μM of ODN (^SPCX) and 10 μM of cODN were dissolved in a 50 mM cacodylic acid buffer (pH 7.4) containing 100 mM of NaCl, and then heated at 90° C. for 1 minute, and then cooled at 4° C. Irradiation with light having 450 nm (LED) was carried out at 4° C. Analysis was then carried out by UPLC. The analysis conditions for UPLC are as follows. The measurement was carried out at a measurement wavelength of 260 nm and at a flow rate of 0.2 mL/min, using a mixed solution of ammonium formate and acetonitrile in which the initial conditions were 99% of ammonium formate and […], and 85% of ammonium formate and 15% of acetonitrile at the end of the analysis (10 minutes).

As for `O=c1ccc2cc3ccoc3cc2o1` [psoralen], in the assay on nucleic acids, the “time required for photoreaction” value is recorded as “several hours”.

For 5'-TGCA^SPCXCCGT-3' [ODN (^SPCX)], in the assay on cODN (450 nm (LED), 4° C., 10 μM ODN and 10 μM cODN), the “progress of photocrosslinking reaction (UPLC peaks)” value is on record as “progress of the photocrosslinking reaction was confirmed”.

As to `OC[C@H]1O[C@@H](n2c3ccccc3c3cc4ccc(=S)oc4cc32)CC1O` (stereo partly shown) [^SPCX], in the assay with cODN (irradiation with light having 450 nm), the “photoreactivity compared with pyranocarbazole (PCX)” value is reported as “higher photoreactivity”. For the same molecule, in the assay on cODN (irradiation with light having 450 nm, 4° C.), the “light irradiation time giving photocrosslinking” value came to 10 s.
